Earlier results on two compounds are cited in US8183203B2, “Methods for treating pulmonary hypertension and compositions comprising vasoactive intestinal peptide” (Avant Garde Therapeutics & Technologies LLC, priority 1999, dated 2012).

Each structure is given as a SMILES string.

The test system of data set [1] is dogs left in ventricular fibrillation. The note with it: four dogs, ventricular fibrillation for seven minutes, 4 μg/kg IV bolus, then defibrillated.
For another data set, the system named is Na+ channels. The note with it: isolated rabbit ventricular myocytes, acute.

Regarding `N[C@@H](Cc1cc(I)c(Oc2ccc(O)c(I)c2)c(I)c1)C(=O)O` [T3, 3,5,3′ triiodothyronine], the dogs successfully resuscitated result in data set [1] is reported as “Three out of four”. Also, in the data set with isolated rat hearts, the “time to peak action (onset of inotropic action)” value was 15 s; the “maximum dp/dt (contractility) after a bolus injection” value is “rapidly and significantly increased”. The “burst mode gating of Na+ channels” value in the data set on Na+ channels is “acutely increased”.

With `CC(C)NCC(O)c1ccc(O)c(O)c1` (stereo not drawn) [isoproterenol], in the data set on isolated rat hearts, the “time to peak action (onset of inotropic action)” value is 60 s and the “maximum dp/dt (contractility) after a bolus injection” value is listed as “also increased”.
